Laboratory results published in ChEMBL document CHEMBL1201862, “PubChem BioAssay data set” (2004).
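Cells were grown in 96-well plates and exposed to each compound for 48 hours at five concentrations; endpoints were interpolated linearly between bracketing concentrations, or set to the highest concentration if not reached. GI50 is the concentration that inhibits growth by half.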 Active and inactive are the calls of the source. Cut-off read from the data, not from the text of the source: active = GI50 up to about 1.1 µM and inactive = higher.

How the values were obtained:
Experiment in all cases: growth of human tumour cells (NCI), 48 h
[1] = system: Malme-3M
[2] = system: HT-29
[3] = system: UACC-257
[4] = system: SK-MEL-28
[5] = system: HL-60
[6] = system: SK-MEL-2
[7] = system: SN12C
[8] = system: HCT-15
[9] = system: NCI-H226
[10] = system: RPMI-8226
[11] = system: CAKI-1
[12] = system: UACC-62
[13] = system: NCI/ADR-RES
[14] = system: NCI-H23
[15] = system: OVCAR-5
[16] = system: HOP-92
[17] = system: CCRF-CEM
[18] = system: OVCAR-4
[19] = system: A549
[20] = system: MOLT-4

Question: `O=C1C=CC(=O)c2ncccc21` was tested. Which GI50 [1] did it give?
Answer: 3.84 µM (inactive)

Question: What about the GI50 [2] of the same compound?
Answer: 4.57 µM (inactive)

Question: And the GI50 [3]?
Answer: 5.05 µM (inactive)

Question: And the GI50 [4]?
Answer: 3.46 µM (inactive)

Question: And the GI50 [5]?
Answer: 0.31 µM (active)

Question: And the GI50 [6]?
Answer: 13.6 µM (inactive)

Question: What about the GI50 [7] of the same compound?
Answer: 5.14 µM (inactive)

Question: What about the GI50 [8] of the same compound?
Answer: 2.08 µM

Question: And the GI50 [9]?
Answer: 12.1 µM (inactive)

Question: What about the GI50 [10] of the same compound?
Answer: 2.55 µM (inactive)

Question: What about the GI50 [11] of the same compound?
Answer: 1.8 µM (inactive)

Question: What about the GI50 [12] of the same compound?
Answer: 2.99 µM (inactive)

Question: And the GI50 [13]?
Answer: 11.3 µM (inactive)

Question: What about the GI50 [14] of the same compound?
Answer: 10.3 µM (inactive)

Question: And the GI50 [15]?
Answer: 17.5 µM (inactive)

Question: And the GI50 [16]?
Answer: 1.63 µM (inactive)

Question: And the GI50 [17]?
Answer: 0.787 µM (active)

Question: What about the GI50 [18] of the same compound?
Answer: 5.16 µM (inactive)

Question: And the GI50 [19]?
Answer: 10.1 µM (inactive)

Question: And the GI50 [20]?
Answer: 2.36 µM (inactive)

Question: With `c1ccc(Sc2nc(Sc3ccccc3)nc(Sc3ccccc3)n2)cc1` as the compound, how does the GI50 [1] read?
Answer: > 100 µM (inactive)

Question: What about the GI50 [2] of the same compound?
Answer: 38.9 µM (inactive)

Question: And the GI50 [3]?
Answer: 30.3 µM (inactive)

Question: What about the GI50 [4] of the same compound?
Answer: 43.7 µM (inactive)

Question: What about the GI50 [5] of the same compound?
Answer: 6.38 µM (inactive)

Question: What about the GI50 [6] of the same compound?
Answer: 37.2 µM (inactive)

Question: What about the GI50 [7] of the same compound?
Answer: > 100 µM (inactive)

Question: What about the GI50 [8] of the same compound?
Answer: 33.4 µM

Question: What about the GI50 [9] of the same compound?
Answer: 25.9 µM (inactive)

Question: What about the GI50 [10] of the same compound?
Answer: 15.4 µM (inactive)

Question: What about the GI50 [11] of the same compound?
Answer: 38.9 µM (inactive)

Question: What about the GI50 [12] of the same compound?
Answer: > 100 µM (inactive)

Question: What about the GI50 [14] of the same compound?
Answer: > 100 µM (inactive)

Question: What about the GI50 [15] of the same compound?
Answer: 58.7 µM (inactive)

Question: And the GI50 [17]?
Answer: 6.46 µM (inactive)

Question: What about the GI50 [18] of the same compound?
Answer: 55 µM (inactive)

Question: What about the GI50 [19] of the same compound?
Answer: 28.5 µM (inactive)

Question: What about the GI50 [20] of the same compound?
Answer: 17.8 µM (inactive)

Question: `O=C(Nc1cccc2c1[nH]c1c(-c3ccccc3)nccc12)c1ccccc1[N+](=O)[O-]` was tested. Which GI50 [1] did it give?
Answer: > 100 µM (inactive)

Question: What about the GI50 [2] of the same compound?
Answer: 8.71 µM (inactive)

Question: What about the GI50 [3] of the same compound?
Answer: 74.6 µM (inactive)

Question: What about the GI50 [4] of the same compound?
Answer: 49.5 µM (inactive)

Question: What about the GI50 [5] of the same compound?
Answer: 26.2 µM (inactive)

Question: What about the GI50 [6] of the same compound?
Answer: 54.7 µM (inactive)

Question: And the GI50 [7]?
Answer: 49.1 µM (inactive)

Question: And the GI50 [8]?
Answer: 7.36 µM

Question: What about the GI50 [9] of the same compound?
Answer: 3.74 µM (inactive)

Question: And the GI50 [10]?
Answer: 30.7 µM (inactive)

Question: And the GI50 [11]?
Answer: 18.8 µM (inactive)

Question: What about the GI50 [14] of the same compound?
Answer: 34.7 µM (inactive)

Question: And the GI50 [15]?
Answer: 18.6 µM (inactive)

Question: What about the GI50 [16] of the same compound?
Answer: 2.81 µM (inactive)

Question: What about the GI50 [17] of the same compound?
Answer: 21.9 µM (inactive)

Question: And the GI50 [18]?
Answer: 38.9 µM (inactive)

Question: What about the GI50 [19] of the same compound?
Answer: 24.4 µM (inactive)

Question: And the GI50 [20]?
Answer: 12.9 µM (inactive)

Question: For `O=C(c1ccccc1)c1ccc2c(c1)N=C(c1ccc(Cl)c(Cl)c1)CC(c1ccc3ccccc3c1)N2` (stereo not given), which GI50 [2] is on record?
Answer: > 100 µM (inactive)

Question: And the GI50 [3]?
Answer: > 100 µM (inactive)

Question: And the GI50 [4]?
Answer: > 100 µM (inactive)

Question: And the GI50 [5]?
Answer: 69 µM (inactive)

Question: What about the GI50 [6] of the same compound?
Answer: > 100 µM (inactive)

Question: What about the GI50 [7] of the same compound?
Answer: > 100 µM (inactive)

Question: What about the GI50 [8] of the same compound?
Answer: > 100 µM

Question: What about the GI50 [9] of the same compound?
Answer: > 100 µM (inactive)

Question: And the GI50 [10]?
Answer: 99.8 µM (inactive)

Question: And the GI50 [11]?
Answer: > 100 µM (inactive)

Question: And the GI50 [12]?
Answer: > 100 µM (inactive)

Question: And the GI50 [14]?
Answer: > 100 µM (inactive)

Question: What about the GI50 [15] of the same compound?
Answer: > 100 µM (inactive)

Question: And the GI50 [16]?
Answer: > 100 µM (inactive)

Question: And the GI50 [17]?
Answer: 67.6 µM (inactive)

Question: And the GI50 [18]?
Answer: > 100 µM (inactive)

Question: What about the GI50 [19] of the same compound?
Answer: > 100 µM (inactive)

Question: What about the GI50 [20] of the same compound?
Answer: > 100 µM (inactive)

Question: What does the source list for `Nc1nc(=O)n(C2OC(CO)C(O)C2O)cc1F` (stereo not given)?
Answer: GI50 [2]: 5.65 µM (inactive); GI50 [3]: 3.78 µM (inactive); GI50 [5]: 0.293 µM (active); GI50 [6]: > 100 µM (inactive); GI50 [7]: 3.28 µM (inactive); GI50 [8]: 3.13 µM; GI50 [9]: > 100 µM (inactive); GI50 [10]: > 100 µM (inactive); GI50 [11]: 1.65 µM (inactive); GI50 [12]: 1.36 µM (inactive); GI50 [13]: 0.76 µM (active); GI50 [14]: 0.191 µM (active); GI50 [15]: 0.855 µM (active); GI50 [16]: 0.0755 µM (active); GI50 [17]: < 0.0136 µM (active); GI50 [18]: > 100 µM (inactive); GI50 [19]: 0.255 µM (active); GI50 [20]: < 0.0166 µM (active)

Question: Which results are given for `c1ccc(P(CCP(c2ccccn2)c2ccccn2)c2ccccc2)cc1`?
Answer: GI50 [1]: 25.2 µM (inactive); GI50 [2]: 0.0247 µM (active); GI50 [3]: < 0.0185 µM (active); GI50 [4]: 64 µM (inactive); GI50 [5]: 0.0398 µM (active); GI50 [6]: 7.67 µM (inactive); GI50 [7]: 14 µM (inactive); GI50 [8]: > 100 µM; GI50 [9]: 45.3 µM (inactive); GI50 [10]: 0.0409 µM (active); GI50 [11]: > 90.8 µM (inactive); GI50 [12]: 63.7 µM (inactive); GI50 [13]: > 100 µM (inactive); GI50 [14]: < 0.01 µM (active); GI50 [15]: > 75.9 µM (inactive); GI50 [16]: 3.01 µM (inactive); GI50 [18]: 50.7 µM (inactive); GI50 [19]: 0.0736 µM (active); GI50 [20]: 80.2 µM (inactive)

Question: How did the GI50 [1] turn out when `O=CNc1cccc2c3c([nH]c12)CCCCCC3` was run?
Answer: > 85.5 µM (inactive)

Question: And the GI50 [2]?
Answer: > 69.3 µM (inactive)

Question: And the GI50 [3]?
Answer: > 87.3 µM (inactive)

Question: And the GI50 [4]?
Answer: > 100 µM (inactive)

Question: What about the GI50 [5] of the same compound?
Answer: > 100 µM (inactive)

Question: What about the GI50 [6] of the same compound?
Answer: > 100 µM (inactive)

Question: What about the GI50 [7] of the same compound?
Answer: > 100 µM (inactive)

Question: And the GI50 [8]?
Answer: > 100 µM

Question: And the GI50 [9]?
Answer: > 100 µM (inactive)

Question: And the GI50 [11]?
Answer: 33 µM (inactive)

Question: What about the GI50 [12] of the same compound?
Answer: > 100 µM (inactive)

Question: What about the GI50 [13] of the same compound?
Answer: > 100 µM (inactive)

Question: And the GI50 [14]?
Answer: > 100 µM (inactive)

Question: And the GI50 [15]?
Answer: > 100 µM (inactive)

Question: What about the GI50 [16] of the same compound?
Answer: 48 µM (inactive)

Question: What about the GI50 [17] of the same compound?
Answer: > 77.8 µM (inactive)

Question: What about the GI50 [18] of the same compound?
Answer: > 100 µM (inactive)

Question: And the GI50 [19]?
Answer: > 100 µM (inactive)

Question: What about the GI50 [20] of the same compound?
Answer: 66.1 µM (inactive)

Question: How did the GI50 [1] turn out when `O[C@H]1[C@H](O)[C@@H](O)CN2CC[C@H](O)[C@H]12` [CASTANOSPERMINE] was run?
Answer: > 90.6 µM (inactive)

Question: What about the GI50 [2] of the same compound?
Answer: > 100 µM (inactive)

Question: And the GI50 [3]?
Answer: > 100 µM (inactive)

Question: And the GI50 [4]?
Answer: > 100 µM (inactive)

Question: And the GI50 [5]?
Answer: > 39.8 µM (inactive)

Question: And the GI50 [6]?
Answer: 99.3 µM (inactive)

Question: What about the GI50 [7] of the same compound?
Answer: > 100 µM (inactive)

Question: What about the GI50 [8] of the same compound?
Answer: > 100 µM

Question: And the GI50 [9]?
Answer: > 100 µM (inactive)

Question: What about the GI50 [10] of the same compound?
Answer: > 100 µM (inactive)

Question: What about the GI50 [11] of the same compound?
Answer: > 100 µM (inactive)

Question: And the GI50 [12]?
Answer: > 100 µM (inactive)

Question: What about the GI50 [13] of the same compound?
Answer: > 100 µM (inactive)

Question: And the GI50 [14]?
Answer: > 100 µM (inactive)

Question: What about the GI50 [15] of the same compound?
Answer: > 100 µM (inactive)

Question: And the GI50 [16]?
Answer: > 100 µM (inactive)

Question: And the GI50 [17]?
Answer: > 100 µM (inactive)

Question: What about the GI50 [18] of the same compound?
Answer: > 86.7 µM (inactive)

Question: What about the GI50 [19] of the same compound?
Answer: > 100 µM (inactive)

Question: And the GI50 [20]?
Answer: > 100 µM (inactive)
